Results published in patent publication US20090018149A1, “4,5,6,7-tetrahydrobenzo[b]thiophene derivatives and methods for medical intervention against mycobacterial infections” (priority 2002, published 2009).

System: M. smegmatis expressing wildtype PknG
Assay type: cell-based, Mycobacterium smegmatis
Conditions: 10 μM compound, RAW cells, 24 h postinfection; mutant or vector control cleared up to 85%, wild type pknG only 25%

`NC(=O)c1c(NC(=O)C2CC2)sc2c1CCCC2` [Compound 237, 2-(Cyclopropanecarbonyl-amino)-4,5,6,7-tetrahydro-benzo[b]thiophene-3-carboxylic acid amide] was tested, and the “clearance of PknG expressing M. smegmatis in macrophages” value was “as efficient as observed with the mutant or vector control transformants”.
